# Tested on: Dirofilaria immitis (JYD-34) resistant strain
# Details: in vivo
substance,measurement,value
milbemycin oxime,average worms per dog,7.2 worms per dog
same,efficacy (adult worm reduction versus untreated Group 1),70.7%

# From patent US10952988B2, “Methods for controlling the spread of dirofilariosis” (priority 2015, dated 2021)
